Reference: patent US8999355B2, “Non-rinse off cosmetic composition and a cosmetic product comprising said composition” (Natura Cosmeticos S.A., priority 2005, dated 2015)

Experiment: In vitro tests of lamellar structure formation
Format: physicochemical
Conditions: RMT associated to palmitic acid

Q: For “ricinoleyl monomaleate triglyceride [RMT]”, which structure formed is on record?
A: Its structure formed is “form a lamellar structure very similar to the lamellar gel structure that is naturally present in healthy skins”.
